Measurements taken from BindingDB's records for PubMed 36793429 (Therachem Research Medilab, 2023).

biological target: Coagulation factor XI (Homo sapiens) (UniProt P03951); assay: Inhibition of human factor 11a using GPR-AFC as substrate preincubated for 30 mins followed by substrate addition and measured after 60 mins by fluorescence based analysis
Sequence (P03951 whole entry, looked up): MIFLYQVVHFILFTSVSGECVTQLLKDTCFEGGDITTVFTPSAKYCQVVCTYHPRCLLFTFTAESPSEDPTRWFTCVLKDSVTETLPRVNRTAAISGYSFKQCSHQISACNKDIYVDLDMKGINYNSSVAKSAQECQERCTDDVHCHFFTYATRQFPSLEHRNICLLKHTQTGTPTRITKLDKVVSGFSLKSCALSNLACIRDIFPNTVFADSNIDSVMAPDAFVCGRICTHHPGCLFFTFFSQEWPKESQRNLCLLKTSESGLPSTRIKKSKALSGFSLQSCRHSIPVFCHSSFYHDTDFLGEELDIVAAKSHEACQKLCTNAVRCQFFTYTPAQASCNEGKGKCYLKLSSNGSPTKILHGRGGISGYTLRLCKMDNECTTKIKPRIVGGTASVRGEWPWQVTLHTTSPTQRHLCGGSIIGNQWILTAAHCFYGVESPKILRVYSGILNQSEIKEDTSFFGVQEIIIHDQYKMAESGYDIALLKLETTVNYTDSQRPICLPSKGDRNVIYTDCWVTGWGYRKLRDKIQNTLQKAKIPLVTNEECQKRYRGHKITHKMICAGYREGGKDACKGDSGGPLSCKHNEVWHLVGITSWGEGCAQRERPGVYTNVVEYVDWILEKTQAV

| IC50 [µM] | Compound |
| --- | --- |
| 10 | C[C@H]1CCN(c2ccc(CNC(=O)c3cncc(N4CC[C@]5(C4)OC(=O)Nc4ccc(Cl)c(F)c45)n3)cn2)C1 |
| 7.44 | C[C@H]1CCN(c2ccc(CNC(=O)c3cnnc(N4CC[C@]5(C4)OC(=O)Nc4ccc(Cl)c(F)c45)c3)cn2)C1 |
| 10 | CN1CCCC1c1ccc(CNC(=O)c2cnnc(N3CC[C@]4(C3)OC(=O)Nc3ccc(Cl)c(F)c34)c2)cc1 (stereo not given in full) |
| 10 | O=C1Nc2ccc(Cl)c(F)c2[C@]2(CCN(c3cncc(C(=O)NCc4ccc(Cn5ccccc5=O)nc4)n3)C2)O1 |
| 10 | O=C1Nc2ccc(Cl)c(F)c2[C@]2(CCN(c3cncc(C(=O)NCc4ccc(Cn5ccccc5=O)nc4)c3)C2)O1 |
| 10 | Cc1cnn(Cc2ccc(CNC(=O)c3cncc(N4CC[C@]5(C4)OC(=O)Nc4ccc(Cl)c(F)c45)c3)cn2)c1 |
| 10 | Cc1cnn(Cc2ccc(CNC(=O)c3cnnc(N4CC[C@]5(C4)OC(=O)Nc4ccc(Cl)c(F)c45)c3)cc2)c1 |
| 10 | O=C1Nc2ccc(Cl)c(F)c2[C@]2(CCN(c3cncc(C(=O)NCc4ccc(N5CCC5)nc4)n3)C2)O1 |
| 10 | CN1CCN(c2ccc(CNC(=O)c3cncc(N4CC[C@]5(C4)OC(=O)Nc4ccc(Cl)c(F)c45)n3)cn2)CC1 |
| 10 | N#CC1(F)CN(Cc2ccc(CNC(=O)c3cnnc(N4CC[C@]5(C4)OC(=O)Nc4ccc(Cl)c(F)c45)c3)cc2)C1 |
